The test system of one data set is Canis familiaris. Nature of the data set: AUC in dog at […], po. The format is ADME, organism-based, Canis lupus familiaris, Plasma. Details: dose 2.5 mg/kg, route oral. The settings on record: in vivo.
A short description of data set [1]: Half life in dog at […], po. Details: dose 2.5 mg/kg, route oral. To be noted: in vivo. It counts as ADME, organism-based, Canis lupus familiaris.
The nature of data set [2]: Oral bioavailability in dog at […]. The format is ADME, organism-based, Canis lupus familiaris. The settings on record: in vivo.
Data set [3] is described as follows: Metabolic stability in human liver microsomes after 30 mins. The settings on record: read-out: Stability. The format is ADME, Microsome. For orientation: Microsomes from liver hold many membrane-bound enzymes, among them those of drug oxidation.
The target of data set [4] is T1, Glucocorticoid receptor (Homo sapiens, UniProt P04150).
T1 sequence (P04150 whole entry): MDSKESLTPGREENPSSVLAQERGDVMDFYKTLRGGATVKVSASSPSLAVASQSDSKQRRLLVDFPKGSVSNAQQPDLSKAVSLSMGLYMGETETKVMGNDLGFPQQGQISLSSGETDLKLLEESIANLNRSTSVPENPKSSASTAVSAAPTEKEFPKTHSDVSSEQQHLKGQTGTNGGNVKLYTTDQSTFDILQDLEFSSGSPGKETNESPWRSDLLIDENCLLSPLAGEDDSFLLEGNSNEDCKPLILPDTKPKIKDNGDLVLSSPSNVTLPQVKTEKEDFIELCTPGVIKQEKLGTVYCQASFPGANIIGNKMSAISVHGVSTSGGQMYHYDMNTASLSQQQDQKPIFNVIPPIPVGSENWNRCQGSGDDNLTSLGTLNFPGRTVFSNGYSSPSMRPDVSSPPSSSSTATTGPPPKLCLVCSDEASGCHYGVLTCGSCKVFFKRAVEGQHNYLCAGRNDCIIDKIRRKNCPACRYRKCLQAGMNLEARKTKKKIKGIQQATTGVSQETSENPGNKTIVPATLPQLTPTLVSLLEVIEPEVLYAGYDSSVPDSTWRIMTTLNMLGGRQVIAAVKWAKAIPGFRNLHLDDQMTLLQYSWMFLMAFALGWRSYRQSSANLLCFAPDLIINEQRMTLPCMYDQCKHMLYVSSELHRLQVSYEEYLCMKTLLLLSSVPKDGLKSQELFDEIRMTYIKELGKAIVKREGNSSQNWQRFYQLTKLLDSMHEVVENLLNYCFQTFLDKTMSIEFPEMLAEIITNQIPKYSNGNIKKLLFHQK
Description: Displacement of [3H]dexamethasone from human recombinant GR.

Data set [5] addresses T1, Glucocorticoid receptor. Description: Antagonist activity at GR in SW1353/MMTV5 cells assessed as inhibition of dexamethasone-induced luciferase expression. It counts as functional, cell-based.
Data set [6] is described as follows: Cmax in rat at 5 mg/kg, po. The settings on record: in vivo. Further details: dose 5 mg/kg, route oral. The format is ADME, organism-based.
A further data set relates to Rattus norvegicus. Description: AUC in rat at 5 mg/kg, po. The format is ADME, organism-based, Plasma. Details: dose 5 mg/kg, route oral. The settings on record: in vivo.
The nature of data set [7]: Half life in rat at 5 mg/kg, po. It counts as ADME, organism-based. Further details: dose 5 mg/kg, route oral. The settings on record: in vivo.
A short description of data set [8]: Oral bioavailability in rat at 5 mg/kg. It counts as ADME, organism-based. The settings on record: in vivo.
The nature of data set [9]: Ratio of drug level in brain to plasma in rat at 5 mg/kg, po. It counts as ADME, organism-based. Further details: dose 5 mg/kg, route oral. The settings on record: read-out: BPR.
A short description of data set [10]: Cmax in dog at […], po. It counts as ADME, organism-based, Canis lupus familiaris. Further details: dose 2.5 mg/kg, route oral. The settings on record: in vivo.

Molecules are shown by their SMILES.

Broadly, the half-life is the time needed for the level to fall by half in the phase considered. A low value points to rapid decline. The term bioavailability denotes the share of a dose that reaches the circulation, judged against a reference dose that is usually intravenous. One may read the Ki as the equilibrium dissociation constant of an inhibitor or competing ligand from its target. One may read the Cmax as the peak of the concentration-time curve.

Regarding `COC[C@]12Cc3cnn(-c4ccc(F)cc4)c3C=C1CCN(S(=O)(=O)c1ccc(F)cc1)C2`, the AUC is 1.676 µg/h/mL in the data set with Canis familiaris and 0.621 µg/h/mL in the data set on Rattus norvegicus. Further, the half-life in data set [1] was 4.2 h; in data set [7], 2.1 h. In addition, the results for the bioavailability in data set [2] and in [8] were 54% and 22%, respectively. The remaining at 0.5 h in [3] is 57%. The Ki at Glucocorticoid receptor [4] came to 1.4 nM; at Glucocorticoid receptor [5], 33 nM. Also, the Cmax came out at 106 ng/mL in data set [6] and 381 ng/mL in data set [10]. Moreover, the Kp in data set [9] came out at 1.1.

On to `CC(C)(C)c1ccc(S(=O)(=O)N2CCC3=Cc4c(cnn4-c4ccc(F)cc4)C[C@]3(CN3CCOCC3)C2)cc1`, for which the Ki on Glucocorticoid receptor [4] came to 0.9 nM; at Glucocorticoid receptor [5], 7.1 nM. For the same compound, the Cmax in data set [6] is 75 ng/mL. This compound gave an AUC in the data set on Rattus norvegicus of 0.302 µg/h/mL. The compound further showed a half-life in data set [7] of 2 h. This compound also gave a bioavailability in [8] of 10%. The Kp in data set [9] worked out at 0.1.

For the compound `COC[C@]12Cc3cnn(-c4ccc(F)cc4)c3C=C1CCN(S(=O)(=O)c1ccc(C(F)(F)F)cc1)C2`, the AUC in the data set with Canis familiaris was determined as 3.638 µg/h/mL; in the data set with Rattus norvegicus, 0.966 µg/h/mL. Further, the values for the half-life in [1] and in data set [7] were 6.7 h and 3.4 h, respectively. Further, the bioavailability in [2] is 58%; in data set [8], 16%. The Ki at Glucocorticoid receptor [4] is 0.8 nM; on Glucocorticoid receptor [5], 28 nM. The Cmax in [6] came to 163 ng/mL; in [10], 647 ng/mL. Further, in [9], the Kp was found to be 0.83.

Consider `CC(C)(C)c1ccc(S(=O)(=O)N2CCC3=Cc4c(cnn4-c4ccc(F)cc4)C[C@]3(C)C2)cc1`, for which the AUC with Canis familiaris was 1.684 µg/h/mL; in the data set on Rattus norvegicus, 1.009 µg/h/mL. The half-life was 4.2 h in data set [1] and 2.7 h in data set [7]. In addition, the bioavailability in data set [2] was 26%; in data set [8], 13%. In addition, the Ki on Glucocorticoid receptor [4] was determined as 1.2 nM; at Glucocorticoid receptor [5], 53 nM. In addition, the figures for the Cmax in [6] and in [10] were 199 ng/mL and 524 ng/mL, respectively. Further, the Kp in data set [9] was found to be 0.07.

As for `COC[C@]12Cc3cnn(-c4ccc(F)cc4)c3C=C1CCN(S(=O)(=O)c1ccc(C(C)(C)C)cc1)C2`, the Ki amounted to 0.8 nM at Glucocorticoid receptor [4] and 7.7 nM at Glucocorticoid receptor [5]. In data set [6], this compound returned a peak concentration (Cmax) of 94 ng/mL. Moreover, the AUC with Rattus norvegicus was 0.43 µg/h/mL. For the same compound, the half-life in [7] was 2.9 h. For the same compound, the bioavailability in [8] turned out to be 11%. Besides, in data set [9], the Kp came to 0.1.

In the case of `COC[C@]12Cc3cnn(-c4ccc(F)cc4)c3C=C1CCN(S(=O)(=O)c1ccccc1)C2`, the figures for the AUC in the data set on Canis familiaris and in the data set with Rattus norvegicus were 0.894 µg/h/mL and 0.112 µg/h/mL, respectively. The values for the half-life in [1] and in [7] were 5.9 h and 3.6 h, respectively. For the same compound, the figures for the bioavailability in data set [2] and in [8] were 20% and 3%, respectively. In addition, the inhibition constant (Ki) is 1 nM at Glucocorticoid receptor [4] and 20 nM on Glucocorticoid receptor [5]. The maximum concentration (Cmax) came to 23 ng/mL in data set [6] and 258 ng/mL in [10]. The Kp in data set [9] came out at 0.75.

On to `COCCOC[C@]12Cc3cnn(-c4ccc(F)cc4)c3C=C1CCN(S(=O)(=O)c1ccc(F)cc1)C2`, for which the remaining at 0.5 h in data set [3] amounted to 7%. Further, the inhibitory constant (Ki) stood at 0.6 nM on Glucocorticoid receptor [4] and 5.2 nM on Glucocorticoid receptor [5].

These data come from ChEMBL document CHEMBL1142367, “1H-Pyrazolo[3,4-g]hexahydro-isoquinolines as selective glucocorticoid receptor antagonists with high functional activity” (Bioorg Med Chem Lett, 2008).
